One series has as its system 9 L/LacZ cells. Description: Screening of siRNA/peptide complexes for FAM-siRNA uptake (flow cytometry, propidium iodide). It counts as cell-based. The settings on record: Table 6. In general terms: Flow cytometry measures light scatter and fluorescence of single cells or particles in a stream.
The test system of the next series is mouse tail fibroblasts. Description: siRNA uptake with siRNA/peptide complexes in murine primary fibroblasts. It counts as cell-based. The settings on record: Table 6. How it is done: Approximately 10,000 9 L/lacZ cells were plated per well in flat-bottom 96-well plates so that they would be ˜50% confluent the next day at the time of transfection. FAM-labeled siRNA and peptides were diluted in Opti-MEM® media (Invitrogen) at 2-fold the final concentration. Equal volumes of siRNA and peptide were mixed and allowed to complex 5-10 minutes at room temperature and then 50 μL added to cells, previously washed with PBS. Cells were transfected for 3 hours at 37° C., 5% CO2. Cells were washed with PBS, treated with trypsin and then analyzed by flow cytometry. siRNA uptake was measured by intensity of FAM fluorescence and cellular viability assessed by addition of propidium iodide.
The materials and methods used for these experiments are generally the same as described above, except that for the murine experiments 9 L/LacZ cells were replaced with mouse tail fibroblasts.
The uptake measurements were performed using mouse tail fibroblast cells.

In the next series the test system is cells. The series is described as follows: Uptake of peptide-siRNA conjugate versus complex (Cy5 fluorescence, flow cytometry). Format: cell-based. The settings on record: FIGS. 1 and 2. The procedure:
Cells were plated the day before in 24-well plates so that they were ˜50-80% confluent at time of transfection. For complexes, siRNA and peptide were diluted in Opti-MEM® media (Invitrogen), then mixed and allowed to complex 5-10 minutes before adding to cells washed with PBS. Final concentration of siRNA was 500 nM at each peptide concentration (2-50 μM). The conjugate, also diluted in Opti-MEM® media, was added to cells at final concentrations ranging from 62.5 nM to 500 nM. At 500 nM concentration, we also combined with 20% FBS just before adding to washed cells. Cells were transfected for 3 hours at 37° C., 5% CO2. Cells were washed with PBS, treated with trypsin and then analyzed by flow cytometry. siRNA uptake was measured by intensity of Cy5 fluorescence and cellular viability assessed by addition of propidium iodide.

The test system of the next series is hTNF-α. Description: Plasma hTNF-α ELISA in human TNF-α expressing mice. It counts as in vivo, mouse. The settings on record: i.v., average of the mice. (In an ELISA, binding on a coated surface is turned into a signal by an enzyme label.)
Series [1] has as its system transgenic mouse models of rheumatoid arthritis (RA) constitutively expressing human TNF-α. Description: Transgenic mouse models of rheumatoid arthritis constitutively expressing human TNF-α. It counts as in vivo. The settings on record: twice weekly beginning at age 6 weeks; stabilization beginning at age 7 weeks. How it is done: One exemplary candidate siRNA/delivery peptide formulation was evaluated in two transgenic mouse models of rheumatoid arthritis (RA) constitutively expressing human TNF-α.

The text below walks through data of patent US8299236B2, “Compositions and methods for enhancing delivery of nucleic acids into cells and for modifying expression of target genes in cells” (Marina Biotech, Inc., priority 2004, dated 2012).

Excerpt for hTNF-α: During the injection periods, plasma samples were collected for ELISA testing (R&D Systems, Cat#SSTA00C), and paw scores were taken twice a week as an accepted index of RA disease progression and therapeutic efficacy.

Regarding “NH2-RKKRRQRRRPPQCAAVALLPAVLLALLAP-amide (H-RKKRRQRRRPPQCAAVALLPAVLLALLAP-NH2) [PN28]”, the “Percent Uptake, LacZ Cells” value in the series with 9 L/LacZ cells was found to be 79%. In addition, the “Percent Uptake, Primary MTF Cells” value with mouse tail fibroblasts is listed as 81%. As to Ac-KETWWETWWTEWSQPKKKRKV-NH2 [PN182], the “Percent Uptake, LacZ Cells” value with 9 L/LacZ cells is recorded as 85%. In the case of “H-RGSRRAVTRAQRRDGRRRRRSRRESYSVYVYRVLRQ-NH2 [PN404]”, in the series on mouse tail fibroblasts, the “Percent Uptake, Primary MTF Cells” value is 50%. Consider “conjugate: TAT-HA peptide (SEQ ID NO: 35) covalently conjugated to the siRNA sense strand (SEQ ID NO: 34) (chain 1 gcaagcugacccugaaguucau; chain 2 RRRQRRKRGGDIMGEWGNEIFGAIAGFLG; peptide-siRNA conjugate)”, for which the “siRNA uptake and mean fluorescence, conjugate compared to complexing peptide and RNA” value with cells was “higher uptake and greater mean fluorescence uptake”. As for “H-RRRQRRKRGGDIMGEWGNEIFGAIAGFLG-NH2 [PN250]”, the “Percent Uptake, LacZ Cells” value in the series with 9 L/LacZ cells is recorded as 99%. Further, the “Percent Uptake, Primary MTF Cells” value with mouse tail fibroblasts came to 86%. On to “H-AAVALLPAVLLALLAPSGASGLDKRDYV-NH2 [PN29]”, for which, in the series with 9 L/LacZ cells, the “Percent Uptake, LacZ Cells” value was found to be 87%.

For “NH2-LLETLLKPFQCRICMRNFSTRQARRNHRRRHRR-amide (H-LLETLLKPFQCRICMRNFSTRQARRNHRRRHRR-NH2; cysteine pairing not given here) [PN202]”, the “Percent Uptake, LacZ Cells” value with 9 L/LacZ cells is reported as 71%. Consider “Ramicade: the RA drug Ramicade (5 mg/kg); TNF-α neutralizing agent infliximab”, for which the “hTNF-α ELISA (plasma)” value with hTNF-α (age 7 weeks) worked out at 102.24 pg/mL; in the series with hTNF-α (age 8 weeks) it was 39.27 pg/mL; with hTNF-α (age 9 weeks), 25.80 pg/mL. For the same substance, the “RA score (paw and joint inflammation)” value in series [1] is “RA score stabilization”. “H-GALFLGFLGAAGSTMGAWSQPKSKRKVC-NH2 [PN453]”: in the series with mouse tail fibroblasts, the “Percent Uptake, Primary MTF Cells” value is 79%. Take AAVALLPAVLLALLAPRKKRRQRRRPPQC [PN27]: in the series with 9 L/LacZ cells, the “Percent Uptake, LacZ Cells” value is 86%. Moreover, the “Percent Uptake, Primary MTF Cells” value in the series on mouse tail fibroblasts was 61%.
